# In US9643951B2, “Compound having somatostatin receptor agonistic activity and pharmaceutical use thereof” (ONO PHARMACEUTICAL CO., LTD., priority 2013, dated 2017):
# Experiments:
# [1] = biological target: T1, human SSTR2 (Homo sapiens, UniProt P30874); assay: Evaluation of SSTR2 agonistic activity using cells expressing human SSTR2 (suppression of forskolin-stimulated cAMP production, SSTR2-CHO-K1); assay type: cell-based
# T1 construct: Myc; expressed in transfected cells
# Method: Evaluation of SSTR2 Agonistic Activity Using Cells Expressing Human SSTR2
# (1) Isolation of Human SSTR2 Gene
# Human brain cDNA was purchased from Ambion (catalogue No.: 7962; Lot No.: 040200121). PCR primers, hSSTR2_F1_XhoI: 5′-[…]-3′ (SEQ ID NO: 1) and hSSTR2_R1_EcoRI: 5′-[…]-3′ (SEQ ID NO: 2) were designed on the basis of the sequence GenBank NM_001050.
# PCR reaction (95° C. for 2 min.→[98° C. for 10 sec., 60° C. for 30 sec. and 68° C. for 90 sec.]×30 cycles) was carried out using the human brain cDNA as a template and using KOD-plus-(TOYOBO Co., Ltd.). The amplified PCR product was subjected to 1% agarose gel electrophoresis, purified using QIAquick Gel Extraction Kit (QIAGEN) and digested with restriction enzymes XhoI and EcoRI. The digested fragments were ligated to an expression vector (pIRESneo-Myc) using the DNA Ligation Kit Ver. 2 (Takara) and used for transformation of E. coli DH5a. The plasmid pIRESneo-Myc/hSSTR2 was prepared and the DNA sequence thereof was confirmed.
# (2) Culture of CHO-K1 Cells
# CHO-K1 (−) was cultured in Ham's F-12 medium (containing foetal bovine serum (10%), penicillin (100 U/mL) and streptomycin (0.1 mg/mL)). The transduced cells were cultured in the same medium supplemented with Geneticin (1 mg/mL).
# (3) Transduction of CHO-K1 Cells
# CHO-K1(−) cells were transduced with the plasmid pIRESneo-Myc/hSSTR2 using Lipofectamine 2000 (Invitrogen). After 48 hours, selection was carried out by replacing the medium with the one containing 1 mg/mL of Geneticin to establish a stable overexpressing cell line (SSTR2-CHO-K1).
# (4) Evaluation of SSTR2 Agonistic Activity
# The human SSTR2 agonistic activity of a test compound was evaluated according to the following procedures by using a suppression activity of intracellular cyclic AMP (cAMP) production by forskolin stimulation as an index. SSTR2-CHO-K1 cells suspended in Ham's F-12 medium (containing foetal bovine serum (10%), penicillin (100 U/mL) and streptomycin (0.1 mg/mL)) supplemented with 0.25 mg/mL of Geneticin were inoculated into a 96-well plate at a density of 4.0×10^4 cells/0.1 mL per well. On the next day, the medium was removed and washed twice with 0.1 mL of wash buffer [0.1% bovine serum albumin (BSA), 20 mmol/L 4-(2-hydroxyethyl)-1-piperazineethane sulphonic acid (HEPES)-containing Hank's balanced salt solution (HBSS)]. An assay buffer [[…] 3-isobutyl-1-methylxanthine (IBMX), 0.1% BSA, 20 mmol/L HEPES-containing HBSS] was added to the wells at 0.06 mL per well and the plate was incubated for 15 minutes under the conditions of 5% carbon dioxide and 37° C. Thereafter, an assay buffer containing a test compound at a concentration twice as high as the final concentration and 0.02 mmol/L of forskolin was added to wells at 0.06 mL per well and the plate was incubated for 30 minutes under the conditions of 5% carbon dioxide and 37° C. Thereafter, the Assay/Lysis buffer included in the cAMP-Screen® kit (available from Applied Biosystems) was added to wells at 0.12 mL per well and the plate was incubated for 30 minutes under the conditions of 5% carbon dioxide and 37° C. The concentration of cAMP in samples were measured by ELISA according to the instruction of the kit.
# [2] = test system: growth hormone (GH) secretion; assay: Evaluation of suppression of growth hormone (GH) secretion using rats (GHRH-induced); assay type: in vivo; details: Rattus norvegicus, Procedure (B): oral administration 8 hours beforehand, 1 mg/kg, read-out: percentage of suppression of GH secretion
# Method: Evaluation of Suppression of Growth Hormone (GH) Secretion Using Rats
# [Procedure (A): Administration of a Test Compound 30 Minutes Beforehand]
# A medium (distilled water (Otsuka distilled water, Otsuka Pharmaceutical Factory, […]) IGS rats (Charles River Laboratories Japan, Inc.)) and after 27 minutes, the animals were administered with 50 mg/kg of pentobarbital sodium (Somnopentyl, Kyoritsu Seiyaku Corporation) via the tail vein for anaesthesia. Three minutes after administration of pentobarbital sodium, the rats were administered with 0.01 mg/kg of growth hormone-releasing hormone (GHRH, Bachem) via the tail vein to induce GH secretion. In order to measure the blood GH concentration, 0.2 mL of blood was collected through the jugular vein at 5 minutes after administration of GHRH. The collected blood was centrifuged at 4° C., 13,000×g for 5 minutes to obtain plasma. The blood GH concentration was measured by using Rat/Mouse Growth Hormone ELISA (Millipore) following the instruction of the kit. The percentage (%) of suppression of GH secretion was determined by using the obtained blood GH concentration and the equation {[suppression (%) of GH secretion]=([blood GH concentration of the group administered with the medium]−[blood GH concentration of the group administered with a test compound])/[blood GH concentration of the group administered with the medium]×100}. In the equation, the group administered with the medium represents the group of animals administered with the medium and the group administered with a test compound represents the group of animals administered with a test compound dissolved in the medium.
# [Procedure (B): Administration of a Test Compound 8 Hours Beforehand]
# A medium (distilled water (Otsuka distilled water, Otsuka Pharmaceutical Factory, […]) IGS rats (Charles River Laboratories Japan, Inc.)) and after 7 hours and 57 minutes, the animals were administered with 50 mg/kg of pentobarbital sodium (Somnopentyl, Kyoritsu Seiyaku Corporation) via the tail vein for anaesthesia. Three minutes after administration of pentobarbital sodium, the rats were administered with 0.01 mg/kg of growth hormone-releasing hormone (GHRH, Bachem) via the tail vein to induce GH secretion. The rest of the procedure is the same as in [Procedure (A)] described above.
# [3] = Evaluation of cytotoxicity using cultured human hepatocytes (intracellular ATP); assay type: cell-based; details: read-out: IC50 of cytotoxicity (concentration at which 50% of the luminescence is suppressed)
# Method: Evaluation of Cytotoxicity Using Cultured Human Hepatocytes
# Frozen adhesive human hepatocytes were thawed, suspended in a hepatocellular medium (HCM) purchased from Lonza and inoculated to a 96-well plate coated with collagen. The culture medium of the hepatocytes cultured overnight in an incubator (5% carbon dioxide, 95% air, 37° C.) was exchanged to the medium containing a test compound at a concentration of 0, 12.5, 25, 50, 100, 200 or 400 (×10^−6 mol/L) and the cells were further cultured for 24 hours. Cytotoxicity was evaluated by measuring the intracellular ATP concentration. Specifically, using the Promega Celltiter-Glo luminescent assay kit available from Promega, cells were lysed in the assay buffer included in the kit and the concentration of ATP released from the cells was measured according to the luminescence resulting from luciferin-luciferase enzyme activity. The luminescence was measured on the SpectraMax plate reader from Molecular Devices. The extent of cytotoxicity of a test compound is represented by the concentration (IC50) of the compound at which 50% of the luminescence is suppressed.
# [4] = Human hepatic microsome stability test; assay type: in vitro ADME; details: human hepatic microsomes 1 mg/mL; 60 minutes; test compound 0.001 mmol/L; 37° C.
# Method: Human Hepatic Microsome Stability Test
# To a reaction vessel heated to 37° C. in a water bath, 0.392 mL of phosphate buffer (0.1 mol/L, pH 7.4) containing human hepatic microsomes (1 mg/mL, Xenotech) and NADPH-Co-factor (NADP+1.3 mmol/L, BD-Bioscience) was added and pre-incubated for 5 minutes. A 50% acetonitrile solution (0.008 mL) containing 0.05 mmol/L of a test compound was added thereto to initiate the enzyme reaction (final concentration of the test compound: 0.001 mmol/L). Immediately after initiation of the reaction and at 60 minutes thereafter, 0.050 mL of the reaction solution was respectively collected, which was immediately added to an acetonitrile solution (0.2 mL) containing an internal standard (45 nmol/L, 1-[3-(3,5-dimethylphenyl)-4-quinolinyl]-4-piperidineamine) to terminate the enzyme reaction.
# The residual rate (%), which is indicative of stability of the test compound, was calculated using the ratio of peak areas between the test compound and the internal substance determined by LC/MS/MS (TSQ Quantum Discovery MAX, Thermo) analysis of the sample thus prepared by the above procedures followed by filtration, and the equation: {[residual rate (%)=[peak area of a test compound in a sample at 60 minutes after initiation of the reaction/peak area of the internal standard]/[peak area of the test compound in the sample immediately after initiation of the reaction/peak area of the internal standard]×100}.
# T1 sequence (P30874 whole entry): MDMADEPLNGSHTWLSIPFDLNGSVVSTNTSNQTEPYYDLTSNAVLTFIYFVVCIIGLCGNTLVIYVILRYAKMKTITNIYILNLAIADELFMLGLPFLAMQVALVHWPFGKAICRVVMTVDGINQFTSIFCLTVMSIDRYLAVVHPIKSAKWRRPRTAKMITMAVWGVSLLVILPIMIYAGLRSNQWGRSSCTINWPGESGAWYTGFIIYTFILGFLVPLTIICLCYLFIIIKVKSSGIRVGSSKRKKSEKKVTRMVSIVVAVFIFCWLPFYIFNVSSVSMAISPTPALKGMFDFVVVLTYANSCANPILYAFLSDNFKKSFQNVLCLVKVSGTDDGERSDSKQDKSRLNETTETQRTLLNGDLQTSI
Compound,EC50 [1] [nM],residual rate [4] [%],inhibition in vivo at 1 mg/kg [2] [%],IC50 at 24 h [3] [nM]
"CO[C@@H]1CN(c2c(-c3ccc(C(F)(F)F)cc3)cncc2-c2cc(Cl)cc(Cl)c2)CC[C@H]1N (racemic) [Example 2(6), rac-(3R,4R)-1-{3-(3,5-dichlorophenyl)-5-[4-(trifluoromethyl)phenyl]-4-pyridinyl}-3-methoxy-4-piperidineamine]",0.47,,,
"NC1CCN(c2c(-c3ccc(C(F)(F)F)cc3)cncc2-c2cc(Cl)cc(Cl)c2)CC1 [Example 1, 1-{3-(3,5-dichlorophenyl)-5-[4-(trifluoromethyl)phenyl]-4-pyridinyl}-4-piperidineamine]",0.031,94.6,93,19000
"NC1CCN(c2c(-c3ccc(OC(F)F)cc3)cncc2-c2cc(F)cc(Cl)c2)CC1 [Example 2(1), 1-{3-(3-chloro-5-fluorophenyl)-5-[4-(difluoromethoxy)phenyl]-4-pyridinyl}-4-piperidineamine]",0.041,100.0,91,19000
"N#CC1(c2ccc(-c3cncc(-c4cc(Cl)cc(Cl)c4)c3N3CCC(N)CC3)cc2)CC1 [Example 2(2), 1-{4-[4-(4-amino-1-piperidinyl)-5-(3,5-dichlorophenyl)-3-pyridinyl]phenyl}cyclopropanecarbonitrile]",0.013,100.0,93,11000
"NC1CCN(c2c(-c3ccc(OC(F)F)cc3)cncc2-c2cc(Cl)cc(Cl)c2)CC1 [Example 2(3), 1-{3-(3,5-dichlorophenyl)-5-[4-(difluoromethoxy)phenyl]-4-pyridinyl}-4-piperidineamine]",0.021,96.4,88,9000
"CC(C)(C#N)c1ccc(-c2cncc(-c3cc(Cl)cc(Cl)c3)c2N2CCC(N)CC2)cc1 [Example 2(4), 2-{4-[4-(4-amino-1-piperidinyl)-5-(3,5-dichlorophenyl)-3-pyridinyl]phenyl}-2-methylpropanenitrile]",0.024,94.0,88,13000
"N#CC1(c2ccc(-c3cncc(-c4cc(Cl)cc(Cl)c4)c3N3CC[C@@H]4NCCO[C@H]4C3)cc2)CC1 [Example 2(5), 1-(4-{5-(3,5-dichlorophenyl)-4-[(4aS,8aS)-octahydro-6H-pyrido[3,4-b][1,4]oxazin-6-yl]-3-pyridinyl}phenyl)cyclopropanecarbonitrile]",0.05,53.1,85,19000
"Cc1cc(C)cc(-c2cnc3cc(Cl)c(-c4cnn(C)c4)cc3c2OCC[C@H]2CCCCN2)c1 [formula (M), reference compound]",,,,13000

# Second part, led by results:
EC50 [1] [nM],residual rate [4] [%],Compound,inhibition in vivo at 1 mg/kg [2] [%],IC50 at 24 h [3] [nM]
0.17,,"CO[C@@H]1CN(c2c(-c3ccc(C(F)(F)F)cc3)cncc2-c2cc(Cl)cc(Cl)c2)CC[C@@H]1N (racemic) [Example 2(7), rac-(3R,4S)-1-{3-(3,5-dichlorophenyl)-5-[4-(trifluoromethyl)phenyl]-4-pyridinyl}-3-methoxy-4-piperidineamine]",,
0.083,88.0,"NC1CCN(c2c(-c3ccc(C(F)(F)F)cc3)cncc2-c2cc(F)cc(Cl)c2)CC1 [Example 2, 1-{3-(3-chloro-5-fluorophenyl)-5-[4-(trifluoromethyl)phenyl]-4-pyridinyl}-4-piperidineamine]",93,10000
0.038,49.9,"N#Cc1cccc(/C=C/c2cncc(-c3cc(Cl)cc(Cl)c3)c2N2CCC(N)CC2)c1 [Example 4(1), 3-{(E)-2-[4-(4-amino-1-piperidinyl)-5-(3,5-dichlorophenyl)-3-pyridinyl]vinyl}benzonitrile]",84,
0.027,89.9,"N[C@@H]1CCN(c2c(-c3ccc(C(F)(F)F)cc3)cncc2-c2cc(Cl)cc(Cl)c2)C[C@@H]1O [Example 6, (3S,4R)-4-amino-1-{3-(3,5-dichlorophenyl)-5-[4-(trifluoromethyl)phenyl]-4-pyridinyl}-3-piperidinol]",89,
,1.2,"Cc1cc(C)cc(-c2cncc(-c3nc4c(C)cc(C)cc4[nH]3)c2N2CCC(N)CC2)c1 [formula (P), reference compound]",,
